Results taken from US20080221100A1, “SOLUBLE EPOXIDE HYDROLASE INHIBITORS” (Arete Therapeutics, Inc., priority 2006, published 2008).

Assays:
[1] = system: soluble epoxide hydrolase (sEH); assay: Fluorescent assay for mouse and human soluble epoxide hydrolase (CMNPC substrate); type: biochemical, mouse or human, not specified
From the text: Fluorescent Assay for Mouse and Human Soluble Epoxide Hydrolase Recombinant mouse sEH (MsEH) and human sEH (HsEH) were produced in a baculovirus expression system as previously reported. Grant et al., J. Biol. Chem., 268:17628-17633 (1993); Beetham et al., Arch. Biochem. Biophys., 305:197-201 (1993). The expressed proteins were purified from cell lysate by affinity chromatography. Wixtrom et al., Anal. Biochem., 169:71-80 (1988). Protein concentration was quantified using the Pierce BCA assay using bovine serum albumin as the calibrating standard. […] They contained no detectable esterase or glutathione transferase activity which can interfere with the assay. The assay was also evaluated with similar results in crude cell lysates or homogenate of tissues. The IC50s for each inhibitor were determined according to the following procedure: Substrate: [drawing 155] […] Jones P. D. et al.; Analytical Biochemistry 2005; 343: pp. 66-75) Solutions: Bis/Tris HCl 25 mM pH 7.0 containing 0.1 mg/mL of BSA (buffer […] at 0.25 mM in DMSO. Mother solution of enzyme in buffer A (Mouse sEH at 6 μg/mL and Human sEH at 5 μg/mL). Inhibitor dissolved in DMSO at the appropriate concentration. Protocol: In a black 96 well plate, fill all the wells with 150 μL of buffer A. Add 2 μL of DMSO in well A2 and A3, and then add 2 μL of inhibitor solution in A1 and A4 through A12. Add 150 μL of buffer A in row A, then mix several time and transfer 150 μL to row B. Repeat this operation up to row H. The 150 μL removed from row H is discarded. Add 20 μL of buffer A in column 1 and 2, then add 20 μL of enzyme solution to column 3 to 12. Incubate the plate for 5 minutes in the plate reader at 30° C. During incubation prepare the working solution of substrate by mixing 3.68 mL of buffer A (4×0.920 mL) with 266 μL (2×133 μL) of substrate solution). At t=0, add 30 μL of working substrate solution with multi-channel pipette labeled “Briggs 303” and start the reading ([S]final: 5 μM). Read with ex: 330 nm (20 nm) and em: 465 nm (20 nm) every 30 second for 10 minutes. The velocities are used to analyze and calculate the IC50s.

% Inhibition ([1]; Conc 200 nM) | melting point | % Inhibition ([1]; Conc 50 nM) | % Inhibition ([1]; Conc 500 nM) | % Inhibition ([1]; Conc 2000 nM) | SMILES
100% | 175 to 182 °C | – | – | – | O=C(Nc1ccc(C(F)(F)F)cc1)NC1CCN(C(=O)CCCO)CC1 [Compound 53, 1-(1-(4-hydroxybutanoyl)piperidin-4-yl)-3-(4-(trifluoromethyl)phenyl)urea]
– | 312 to 315 °C | 98% | – | – | O=C(Nc1ccc(C(F)(F)F)cc1)NC1CCN(C(=O)c2ccc(N3CCOCC3)cc2)CC1 [Compound 37, 1-(1-(4-Morpholinobenzoyl)piperidin-4-yl)-3-(4-(trifluoromethyl)phenyl)urea]
98% | 200 to 205 °C | – | – | – | O=C(Nc1ccc(C(F)(F)F)cc1)NC1CCN(S(=O)(=O)CCCO)CC1 [Compound 50, 1-(1-(3-hydroxypropylsulfonyl)piperidin-4-yl)-3-(4-(trifluoromethyl)phenyl)urea]
– | 245 to 248 °C | 91% | – | – | O=C(Nc1cccc(F)c1)NC1CCN(S(=O)(=O)c2ccc(Cl)cc2)CC1 [Compound 23, 1-[1-(4-Chloro-benzenesulfonyl)-piperidin-4-yl]-3-(3-fluoro-phenyl)-urea]
– | 206 to 208 °C | 89% | – | – | CC(C)(C)OC(=O)C(C)(C)Oc1ccc(C(=O)N2CCC(NC(=O)Nc3ccc(C(F)(F)F)cc3)CC2)cc1 [Compound 38, Tert-butyl 2-methyl-2-(4-(4-(3-(4-(trifluoromethyl)phenyl)ureido)piperidine-1-carbonyl)phenoxy)propanoate]
97% | 260 to 261 °C | – | – | – | CC(C)(C)S(=O)(=O)N1CCC(NC(=O)Nc2ccc(C(F)(F)F)cc2)CC1 [Compound 54, 1-(1-(tert-butylsulfonyl)piperidin-4-yl)-3-(4-(trifluoromethyl)phenyl)urea]
– | 303 to 308 °C | 95% | – | – | O=C(Nc1ccc(Cl)cc1)NC1CCN(C(=O)c2ccc(N3CCOCC3)cc2)CC1 [Compound 36, 1-(4-Chlorophenyl)-3-(1-(4-morpholinobenzoyl)piperidin-4-yl)urea]
– | 212 to 214 °C | – | 80% | – | CS(=O)(=O)N1CCC(NC(=O)Nc2cccc(F)c2)CC1 [Compound 31, 1-(3-Fluoro-phenyl)-3-(1-methanesulfonyl-piperidin-4-yl)-urea]
– | 112 to 114 °C | – | 80% | – | CC(=O)N1CCC(NC(=O)Nc2cccc(F)c2)CC1 [Compound 32, 1-(1-Acetyl-piperidin-4-yl)-3-(3-fluoro-phenyl)-urea]
– | 234 to 236 °C | – | – | 43% | O=C(Nc1ccc(C(F)(F)F)cc1)NC1CCN(C(=O)N2CCOCC2)CC1 [Compound 55, 1-(1-(morpholine-4-carbonyl)piperidin-4-yl)-3-(4-(trifluoromethyl)phenyl)urea]
– | 86 to 88 °C | 94% | – | – | O=C(Nc1cccc(F)c1)NC1CCN(S(=O)(=O)c2cccc(C(F)(F)F)c2)CC1 [Compound 28, 1-(3-Fluoro-phenyl)-3-[1-(3-trifluoromethyl-benzenesulfonyl)-piperidin-4-yl]-urea]
94% | 229 to 230 °C | – | – | – | CC(C)(C)[S+]([O-])N1CCC(NC(=O)Nc2ccc(C(F)(F)F)cc2)CC1 (stereo not drawn) [Compound 52, 1-(1-(tert-butylsulfinyl)piperidin-4-yl)-3-(4-(trifluoromethyl)phenyl)urea]
– | 160 to 162 °C | – | 85% | – | O=C(Nc1ccc(F)cc1)NC1CCN(S(=O)(=O)c2ccc(Cl)cc2)CC1 [Compound 19, 1-[1-(4-Chloro-benzenesulfonyl)-piperidin-4-yl]-3-(4-fluoro-phenyl)-urea]
– | 186 to 188 °C | 80% | – | – | CS(=O)(=O)N1CCC(NC(=O)Nc2ccc(F)cc2)CC1 [Compound 27, 1-(4-Fluoro-phenyl)-3-(1-methanesulfonyl-piperidin-4-yl)-urea]
– | 217 to 219 °C | 92% | – | – | Cc1nc(C(=O)N2CCC(NC(=O)Nc3ccc(C(F)(F)F)cc3)CC2)c(C)o1 [Compound 39, 1-(1-(2,5-Dimethyloxazole-4-carbonyl)piperidin-4-yl)-3-(4-(trifluoromethyl)phenyl)urea]
– | 146 to 148 °C | – | 74% | – | CC(=O)N1CCC(NC(=O)Nc2ccc(F)cc2)CC1 [Compound 21, 1-(1-Acetyl-piperidin-4-yl)-3-(4-fluoro-phenyl)-urea]
– | 116 to 118 °C | 90% | – | – | O=C(Nc1cccc(C(F)(F)F)c1)NC1CCN(S(=O)(=O)c2ccc(Cl)cc2)CC1 [Compound 30, 1-[1-(4-Chloro-benzenesulfonyl)-piperidin-4-yl]-3-(3-trifluoromethyl-phenyl)-urea]

SMILES | % Inhibition ([1]; Conc 200 nM) | melting point | % Inhibition ([1]; Conc 50 nM) | % Inhibition ([1]; Conc 500 nM) | % Inhibition ([1]; Conc 2000 nM)
O=C(Nc1cccc(F)c1)NC1CCN(S(=O)(=O)c2ccccc2)CC1 [Compound 22, 1-(1-Benzenesulfonyl-piperidin-4-yl)-3-(3-fluoro-phenyl)-urea] | – | 186 to 188 °C | 82% | – | –
